Experiments:
Experiment in all cases: relative viability (nuclei count vs DMSO), 5 days (fraction); higher = more cells survive
Veliparib + Foretinib = compound: C[C@]1(c2nc3c(C(N)=O)cccc3[nH]2)CCCN1 [Veliparib] + COc1cc2c(Oc3ccc(NC(=O)C4(C(=O)Nc5ccc(F)cc5)CC4)cc3F)ccnc2cc1OCCCN1CCOCC1 [Foretinib] (partner 0.25 µM)
Summary of the method: (§1)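 Values are medians from duplicate plates. Each reflects relative viability, defined as the nuclei count of treated wells over that of vehicle wells. Lung cancer cell lines in 1536-well plates were pin-tool dosed one day after seeding with one drug alone or with a fixed anchor-drug dose plus five library-drug doses (not always all listed) in √10 steps, then fixed, stained and imaged at 4× after 5 days.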

[1] = compound: COC1=CC=C(C=C1)CN2C=CC3=C2C=C(C=C3)C(=O)NO + Nc1nc2[nH]cc(CCc3ccc(C(=O)N[C@@H](CCC(=O)O)C(=O)O)cc3)c2c(=O)[nH]1 [Pemetrexed] (partner 0.2 µM)
Summary of the method: as §1

Veliparib + Pemetrexed = compound: C[C@]1(c2nc3c(C(N)=O)cccc3[nH]2)CCCN1 [Veliparib] + Nc1nc2[nH]cc(CCc3ccc(C(=O)N[C@@H](CCC(=O)O)C(=O)O)cc3)c2c(=O)[nH]1 [Pemetrexed] (partner 0.2 µM)
Summary of the method: as §1

Veliparib + Trametinib = compound: C[C@]1(c2nc3c(C(N)=O)cccc3[nH]2)CCCN1 [Veliparib] + CC(=O)Nc1cccc(-n2c(=O)n(C3CC3)c(=O)c3c(Nc4ccc(I)cc4F)n(C)c(=O)c(C)c32)c1 [Trametinib] (partner 0.02 µM)
Summary of the method: as §1

| Cell Line | relative viability (Veliparib + Foretinib; first compound 0.02 µM) | relative viability (Veliparib + Foretinib; first compound 0.06325 µM) | relative viability (Veliparib + Foretinib; first compound 0.2 µM) | relative viability (Veliparib + Foretinib; first compound 0.6325 µM) | relative viability (Veliparib + Foretinib; first compound 2 µM) | relative viability ([1]; first compound 0.08 µM) | relative viability ([1]; first compound 0.253 µM) | relative viability ([1]; first compound 0.8 µM) | relative viability ([1]; first compound 2.53 µM) | relative viability ([1]; first compound 8 µM) | relative viability (Veliparib + Pemetrexed; first compound 0.02 µM) | relative viability (Veliparib + Pemetrexed; first compound 0.06325 µM) | relative viability (Veliparib + Pemetrexed; first compound 0.2 µM) | relative viability (Veliparib + Pemetrexed; first compound 0.6325 µM) | relative viability (Veliparib + Pemetrexed; first compound 2 µM) | relative viability (Veliparib + Trametinib; first compound 0.02 µM) | relative viability (Veliparib + Trametinib; first compound 0.06325 µM) | relative viability (Veliparib + Trametinib; first compound 0.2 µM) | relative viability (Veliparib + Trametinib; first compound 0.6325 µM) | relative viability (Veliparib + Trametinib; first compound 2 µM) |
| --- | --- | --- | --- | --- | --- | --- | --- | --- | --- | --- | --- | --- | --- | --- | --- | --- | --- | --- | --- | --- |
| NCI-H2342 | 1.16 | 1.05 | 1.06 | 1.01 | 0.903 | 0.726 | 0.788 | 0.791 | 0.753 | 0.829 | 0.675 | 0.721 | 0.744 | 0.784 | 0.771 | 0.76 | 0.81 | 0.701 | 0.742 | 0.736 |
| HOP-62 | 1.17 | 0.983 | 0.99 | 1.13 | 1.22 | 0.278 | 0.454 | 0.31 | 0.244 | 0.35 | 0.311 | 0.376 | 0.365 | 0.329 | 0.373 | 0.375 | 0.322 | 0.351 | 0.39 | 0.407 |
| BEN | 0.413 | 0.482 | 0.724 | 0.656 | 0.569 | 0.729 | 0.615 | 0.921 | 0.725 | 0.661 | 0.576 | 0.771 | 0.743 | 0.795 | 0.631 | 1.11 | 1.11 | 1.06 | 1.01 | 1.08 |
| NCI-H647 | 1.35 | 1.15 | 1.29 | 1.15 | 0.977 | 0.142 | 0.154 | 0.149 | 0.166 | 0.231 | 0.167 | 0.188 | 0.192 | 0.175 | 0.216 | 0.502 | 0.451 | 0.483 | 0.478 | 0.481 |
| NCI-H2085 | – | 0.787 | 0.909 | 0.647 | 1.15 | 1.07 | 0.951 | 1.02 | 0.941 | 0.948 | 0.58 | 0.952 | 0.911 | 0.875 | 0.802 | 0.553 | 0.494 | 0.615 | 0.532 | 0.556 |
| NCI-H2347 | 0.977 | 0.545 | 0.763 | 0.802 | 0.844 | 0.399 | 0.44 | 0.405 | 0.473 | 0.453 | 0.434 | 0.456 | 0.425 | 0.471 | 0.445 | 0.294 | 0.254 | 0.26 | 0.364 | 0.288 |
| NCI-H2228 | 0.794 | 0.731 | 0.845 | 0.737 | 0.957 | 0.311 | 0.347 | 0.336 | 0.343 | 0.298 | 0.336 | 0.375 | 0.398 | 0.331 | 0.313 | 0.362 | 0.57 | 0.597 | 0.523 | 0.368 |
| NCI-H2009 | 1.35 | 1.21 | 1.17 | 1.2 | 1.28 | 1.05 | 1.12 | 1 | 0.983 | 1.1 | 1.09 | 0.952 | 0.957 | 0.978 | 1.07 | 0.289 | 0.291 | 0.316 | 0.302 | 0.33 |
| IA-LM | 1.3 | 1.21 | 1.2 | 1.16 | 1.12 | – | – | – | – | – | – | – | – | – | – | – | – | – | – | – |
| NCI-H358 | 0.723 | 0.647 | 0.623 | 0.625 | 0.573 | – | 0.161 | 0.161 | 0.167 | 0.164 | 0.206 | 0.173 | 0.165 | 0.146 | 0.176 | 0.0965 | 0.12 | 0.195 | 0.115 | 0.152 |
| SK-LU-1 | 0.874 | 0.756 | 0.899 | 0.644 | 0.902 | 0.942 | 0.973 | 1 | 1.01 | 0.953 | 0.963 | 1.03 | 1.15 | 0.92 | 0.981 | 0.561 | 0.519 | 0.607 | 0.524 | 0.415 |
| LCLC-97TM1 | 0.875 | 0.863 | 0.862 | 0.939 | 0.989 | – | 0.192 | 0.182 | 0.191 | 0.144 | 0.19 | 0.173 | 0.177 | 0.141 | 0.189 | 0.221 | 0.178 | 0.202 | 0.183 | 0.198 |
| NCI-H322M | – | 0.948 | 0.871 | 1 | 0.937 | – | – | 0.561 | 0.635 | 0.609 | – | 0.582 | 0.611 | 0.568 | 0.614 | – | 0.52 | 0.465 | 0.5 | 0.494 |
| NCI-H1623 | 0.639 | 0.796 | 0.855 | 0.811 | 0.716 | – | – | – | – | – | – | – | – | – | – | – | – | – | – | – |
| EMC-BAC-2 | 0.999 | 0.911 | 1.11 | 1.01 | 1.02 | 0.428 | – | 0.451 | 0.476 | 0.491 | 0.492 | 0.408 | 0.438 | 0.442 | 0.502 | 1.01 | – | 0.922 | 0.752 | 0.913 |
